Holding throughout (format): in vivo
The test system of one assay is Boophilus microplus. Description: Boophilus microplus injection test. The settings on record: 20 μg/animal, injection into engorged adult female cattle ticks, after 7 days. The protocol: Boophilus microplus—Injection Test
(§1) Solvent: Dimethyl Sulfoxide
To produce a suitable active compound formulation, 10 mg of active compound are mixed with 0.5 ml of solvent and the concentrate is diluted to the desired concentration with solvent.
1 μl of the active compound solution is injected into the abdomen of 5 engorged adult female cattle ticks (Boophilus microplus). The animals are transferred into dishes and kept in a climate-controlled room.
Efficacy is assessed after 7 days by laying of fertile eggs. Eggs which are not visibly fertile are stored in a climate-controlled cabinet until the larvae hatch after about 42 days. An efficacy of 100% means that none of the ticks has laid any fertile eggs; 0% means that all the eggs are fertile.

Assay [1] has as its system Ctenocephalides felis. The assay can be described thus: Ctenocephalides felis oral test. The settings on record: 48 h, 100 ppm in citrated cattle blood, adult cat fleas, after 2 days, read-out: efficacy (kill). The protocol: Ctenocephalides felis—Oral Test
as §1
To produce a suitable active compound formulation, 10 mg of active compound are mixed with 0.5 ml of dimethyl sulfoxide. Dilution with citrated cattle blood gives the desired concentration.
About 20 unfed adult cat fleas (Ctenocephalides felis) are placed into a chamber which is closed at the top and bottom with gauze. A metal cylinder whose bottom end is closed with parafilm is placed onto the chamber. The cylinder contains the blood/active compound formulation, which can be imbibed by the fleas through the parafilm membrane.
After 2 days, the kill in % is determined. 100% means that all of the fleas have been killed; 0% means that none of the fleas have been killed.

For another assay, the system named is Musca domestica. The assay can be described thus: Musca domestica test. The following applies: 100 ppm, adult houseflies, after 2 days. Here is the method: as §1
To produce a suitable active compound formulation, 10 mg of active compound are mixed with 0.5 ml of dimethyl sulfoxide, and the concentrate is diluted with water to the desired concentration.
Vessels containing a sponge treated with sugar solution and the desired concentration of active compound formulation are populated with 10 adult houseflies (Musca domestica).
After 2 days, the kill in % is determined. 100% means that all of the flies have been killed; 0% means that none of the flies have been killed.

The next assay deals with Phaedon cochleariae. The assay can be described thus: Phaedon cochleariae spray test. The settings on record: foliar, 168 h, Chinese cabbage leaf discs, after 7 days, read-out: efficacy (beetle larvae killed). The protocol: Phaedon cochleariae—Spray Test Solvent: 78.0 parts by weight of acetone • • 1.5 parts by weight of dimethylformamide Emulsifier: alkylaryl polyglycol ether
To produce a suitable active compound formulation, 1 part by weight of active compound is dissolved using the stated parts by weight of solvent and made up with water containing an emulsifier concentration of 1000 ppm until the desired concentration is attained. To produce further test concentrations, the formulation is diluted with emulsifier-containing water.
Discs of Chinese cabbage leaves (Brassica pekinensis) are sprayed with an active compound formulation of the desired concentration and, after drying, populated with larvae of the mustard beetle (Phaedon cochleariae).
After 7 days, the efficacy in % is determined. 100% means that all the beetle larvae have been killed; 0% means that no beetle larvae have been killed.

Another assay has as its system Spodoptera frugiperda. The assay can be described thus: Spodoptera frugiperda spray test. The following applies: foliar, 168 h, maize leaf discs, after 7 days, read-out: efficacy (caterpillars killed). The gist of the method: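 Compound was dissolved in acetone/dimethylformamide and diluted with water containing 1000 ppm alkylaryl polyglycol ether emulsifier to test concentrations. Maize leaf discs were sprayed, dried and infested with fall armyworm caterpillars. Efficacy (% caterpillars killed) was scored after 7 days.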

A further assay deals with Meloidogyne incognita. The assay can be described thus: Meloidogyne incognita test. The following applies: 336 h, lettuce, after 14 days, read-out: nematicidal efficacy (formation of galls). The protocol:
Meloidogyne incognita Test Solvent: 125.0 parts by weight of acetone
To produce a suitable active compound formulation, 1 part by weight of active compound is mixed with the stated amount of solvent and the concentrate is diluted to the desired concentration with water.
Vessels are filled with sand, active compound solution, an egg/larvae suspension of the southern root-knot nematode (Meloidogyne incognita) and lettuce seeds. The lettuce seeds germinate and the plants develop. The galls develop on the roots.
After 14 days, the nematicidal efficacy in % is determined by the formation of galls. 100% means that no galls were found; 0% means that the number of galls on the treated plants corresponds to the untreated control.

In assay [2] the test system is Ctenocephalides felis. Description: Ctenocephalides felis in vitro contact test with adult cat fleas. The settings on record: 5 μg/cm^2 (=500 g of ai/ha), after 48 h, read-out: efficacy (fleas dead or moribund). The protocol:
Ctenocephalides felis—In Vitro Contact Tests with Adult Cat Fleas
For the coating of the test tubes, 9 mg of active compound are first dissolved in 1 ml of acetone p.a. and then diluted to the desired concentration with acetone p.a. 250 μl of the solution are distributed homogeneously on the inner walls and the base of a 25 ml glass tube by turning and rocking on an orbital shaker (rocking rotation at 30 rpm for 2 h). With 900 ppm of active compound solution and internal surface area 44.7 cm^2, given homogeneous distribution, an area-based dose of 5 μg/cm^2 is achieved.
After the solvent has evaporated off, the tubes are populated with 5-10 adult cat fleas (Ctenocephalides felis), sealed with a perforated plastic lid and incubated in a horizontal position at room temperature and ambient humidity. After 48 h, efficacy is determined. To this end, the tubes are stood upright and the fleas are knocked to the base of the tube. Fleas which remain motionless at the base or move in an uncoordinated manner are considered to be dead or moribund.
100% efficacy means that all the fleas were dead or moribund. 0% efficacy means that no fleas were harmed.

The test system of a further assay is Diabrotica balteata. The assay can be described thus: Diabrotica balteata spray test. The following applies: 168 h, beetle larvae on wheat, after 7 days, read-out: efficacy (wheat plant growth); for pest or weed control at 100 g/ha: 100 g/ha (=32 μg/cavity); for pest or weed control at 500 g/ha: 500 g/ha (=160 μg/cavity). The gist of the method: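 Germinated wheat seedlings in agar multiwell plates were sprayed with compound in acetone/DMF with emulsifier-containing water, then infested with 10-20 Diabrotica balteata larvae. After 7 days, efficacy (%) scored by plant growth: 100% equals untreated, uninfested control, 0% no plants grown.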

With `CCO[C@@H]1[C@@H](OC)[C@H](C)O[C@@H](OC(=O)Nc2ccc(-c3nc(NC(=O)CC)n(-c4ccc(OC(F)(F)C(F)(F)F)cc4)n3)cc2)[C@@H]1OC` [Compound I-005], the “efficacy (laying of fertile eggs)” value with Boophilus microplus is 90%. Moreover, in the assay with Ctenocephalides felis [1], the pest or weed control at 100 ppm was 100%. Also, the “efficacy (kill)” value in the assay on Musca domestica was determined as 80%. For the same compound, the pest or weed control at 100 g/ha in the assay with Phaedon cochleariae and in the assay on Spodoptera frugiperda was 100% throughout. In addition, the pest or weed control at 500 g/ha in the assay with Phaedon cochleariae and in the assay with Spodoptera frugiperda was 100% each time.
`CC(=O)Nc1nc(-c2ccc(C(C)=NNC(=S)Nc3ccccc3C(C)C)cc2)nn1-c1ccc(OC(F)(F)F)cc1` [Compound I-017]: the pest or weed control at 100 ppm with Ctenocephalides felis [1] was 95%. In addition, the pest or weed control at 20 ppm in the assay on Meloidogyne incognita turned out to be 90%. Besides, the pest or weed control at 100 g/ha in the assay on Phaedon cochleariae and in the assay on Spodoptera frugiperda was 100% throughout.
On to `CC(=O)Nc1nc(-c2ccc(C=NNC(=S)Nc3ccccc3C(C)C)cc2)nn1-c1ccc(OC(F)(F)F)cc1` [Compound I-009], for which the pest or weed control at 5 µg/cm2 with Ctenocephalides felis [2] came out at 100%. Also, in the assay with Ctenocephalides felis [1], the pest or weed control at 100 ppm came out at 100%. For the same compound, the pest or weed control at 100 g/ha with Phaedon cochleariae and in the assay with Spodoptera frugiperda was 100% each time.
As for `CNc1nc(-c2ccc(C=NN=C3SCC(=O)N3c3cc(OC)ccc3C(C)C)cc2)nn1-c1ccc(OC(F)(F)F)cc1` [Compound I-090], the pest or weed control at 5 µg/cm2 in the assay with Ctenocephalides felis [2] was determined as 100%. Moreover, the pest or weed control at 100 g/ha with Diabrotica balteata and in the assay with Spodoptera frugiperda was 100% each time.
For `CO[C@@H]1[C@@H](OC)[C@H](C)O[C@@H](OC(=O)Nc2ccc(-c3nc(NC(C)=O)n(-c4ccc(OC(F)(F)C(F)(F)F)cc4)n3)cc2)[C@@H]1OC` [Compound I-008], in the assay with Ctenocephalides felis [1], the pest or weed control at 100 ppm turned out to be 100%. Further, the “efficacy (kill)” value in the assay with Musca domestica is 80%. For the same compound, in the assay with Phaedon cochleariae, the pest or weed control at 100 g/ha turned out to be 100% and the pest or weed control at 500 g/ha turned out to be 100%. Also, in the assay on Spodoptera frugiperda, the pest or weed control at 100 g/ha came out at 100% and the pest or weed control at 500 g/ha stood at 100%.
Regarding `CNc1nc(-c2ccc(C=NN=c3scc(C)n3-c3ccccc3C(C)C)cc2)nn1-c1ccc(OC(F)(F)F)cc1` [Compound I-097, 3-[4-({[3-(2-isopropylphenyl)-4-methyl-1,3-thiazol-2(3H)-ylidene]hydrazono}methyl)phenyl]-N-methyl-1-[4-(trifluoromethoxy)phenyl]-1H-1,2,4-triazol-5-amine], in the assay with Ctenocephalides felis [2], the pest or weed control at 5 µg/cm2 was determined as 100%. Moreover, the pest or weed control at 100 g/ha in the assay on Diabrotica balteata was 100%; in the assay with Spodoptera frugiperda, 83%.
In the case of `CCO[C@@H]1[C@@H](OC)[C@H](C)O[C@@H](OC(=O)Nc2ccc(-c3nc(NC(=O)CC)n(-c4ccc(OC(F)(F)F)cc4)n3)cc2)[C@@H]1OC` [Compound I-007], in the assay on Boophilus microplus, the “efficacy (laying of fertile eggs)” value is on record as 100%. Besides, the pest or weed control at 100 ppm in the assay with Ctenocephalides felis [1] is 90%. In the assay with Phaedon cochleariae, the pest or weed control at 100 g/ha was determined as 100% and the pest or weed control at 500 g/ha is 100%. In the assay with Spodoptera frugiperda, the pest or weed control at 500 g/ha came out at 100%.
Consider `CNc1nc(-c2ccc(NC(=O)N=C3SCC(=O)N3c3cc(OC)ccc3C(C)C)cc2)nn1-c1ccc(OC(F)(F)C(F)(F)F)cc1` [Compound I-083], for which, in the assay with Ctenocephalides felis [2], the pest or weed control at 5 µg/cm2 is 90%. For the same compound, the pest or weed control at 100 g/ha with Diabrotica balteata and in the assay on Spodoptera frugiperda was 100% each time.
Take `CC(=O)Nc1nc(-c2ccc(C=NN=C3SCC(=O)N3c3ccccc3C(C)C)cc2)nn1-c1ccc(OC(F)(F)F)cc1` [Compound I-032]: the pest or weed control at 5 µg/cm2 in the assay with Ctenocephalides felis [2] came out at 80%. The pest or weed control at 125 g/ha in the assay on Diabrotica balteata (125 g/ha (=40 μg/cavity)) came out at 100%. Moreover, the pest or weed control at 500 g/ha with Diabrotica balteata came to 100%. The pest or weed control at 100 g/ha in the assay on Spodoptera frugiperda worked out at 100%.
For `CNc1nc(-c2ccc(NC(=O)N=C3SCC(=O)N3c3cc(C)ccc3C(C)C)cc2)nn1-c1ccc(OC(F)(F)C(F)(F)F)cc1` [Compound I-079], the pest or weed control at 5 µg/cm2 in the assay with Ctenocephalides felis [2] is 100%. The pest or weed control at 100 g/ha in the assay with Diabrotica balteata and in the assay with Spodoptera frugiperda was 100% in each case.
Consider `CNc1nc(-c2ccc(C=NN=C3SCCCN3c3ccccc3C(C)C)cc2)nn1-c1ccc(OC(F)(F)F)cc1` [Compound I-117], for which the pest or weed control at 5 µg/cm2 in the assay on Ctenocephalides felis [2] is 100%. The pest or weed control at 100 g/ha in the assay on Diabrotica balteata and in the assay with Spodoptera frugiperda was 100% each time.
Take `CCC(=O)Nc1nc(-c2ccc(NC(=O)O[C@@H]3O[C@@H](C)[C@H](OC)[C@@H](OC)[C@H]3OC)cc2)nn1-c1ccc(OC(F)(F)C(F)(F)F)cc1` [Compound I-003]: the “efficacy (laying of fertile eggs)” value with Boophilus microplus was 100%. Moreover, the pest or weed control at 100 ppm with Ctenocephalides felis [1] was found to be 100%. For the same compound, the pest or weed control at 100 g/ha in the assay on Phaedon cochleariae and in the assay with Spodoptera frugiperda was 100% in each case. In addition, the pest or weed control at 500 g/ha with Phaedon cochleariae and with Spodoptera frugiperda was 100% in each case.
With `CCO[C@@H]1[C@@H](OC)[C@H](C)O[C@@H](OC(=O)Nc2ccc(-c3nc(NC(=O)C4CC4)n(-c4ccc(OC(F)(F)C(F)(F)F)cc4)n3)cc2)[C@@H]1OC` [Compound I-002], in the assay on Ctenocephalides felis [1], the pest or weed control at 100 ppm is 100%. In the assay on Musca domestica, the “efficacy (kill)” value amounted to 90%. In the assay with Phaedon cochleariae, the pest or weed control at 100 g/ha is 83% and the pest or weed control at 500 g/ha was found to be 100%. Besides, in the assay with Spodoptera frugiperda, the pest or weed control at 100 g/ha was found to be 100% and the pest or weed control at 500 g/ha turned out to be 100%.
For `CC(C)c1ccccc1NC(=S)NN=Cc1ccc(-c2nc(NC3CC3)n(-c3ccc(OC(F)(F)F)cc3)n2)cc1` [Compound I-051], the pest or weed control at 100 g/ha with Diabrotica balteata and with Spodoptera frugiperda was 100% in each case. In addition, in the assay with Diabrotica balteata, the pest or weed control at 500 g/ha was 100%. The pest or weed control at 20 ppm in the assay on Meloidogyne incognita was determined as 90%.
